Source: PMC8152265, “Seconeolitsine, the Novel Inhibitor of DNA Topoisomerase I, Protects against Invasive Pneumococcal Disease Caused by Fluoroquinolone-Resistant Strains” (Antibiotics, 2021)
Values after ≈ are worked out from the molar mass of the structure shown. Like-named read-outs stand apart in the source and are kept apart here.

Legend:
[1] = test system: S. pneumoniae isolate CipR5 (serotype 33F); assay: MIC by broth microdilution, isolate CipR5; assay type: cell-based, Streptococcus pneumoniae; conditions: AGCH medium, 18–24 h
Procedure: (§1) Bacteria were grown in Todd-Hewitt broth supplemented with 0.5% yeast extract (Difco) to an optical density at 580 nm (OD580) of 0.4 to 0.5 corresponding to ca. 10^8 CFU/mL. Single-use aliquots were stored at −80 °C in 10% glycerol to use in mice infections as previously described. Antimicrobial susceptibility was tested by broth microdilution, according to the Clinical and Laboratory Standards Institute guidelines. S. pneumoniae R6 was included as a quality control. Powders of known potency of LVX and MXF were purchased from Sigma. SCN was synthesized as previously described. Briefly, for MIC determination, pneumococcal strains were grown in a casein hydrolysate-based medium with 0.3% sucrose as an energy source (AGCH medium). A 96-well plate was used including broth containing different concentrations of antibiotics. Plates were inoculated with a standardized suspension of the pneumococcal strains followed by incubation at 37 °C with 5% CO2 for 18–24 h. The minimal inhibitory concentrations (MICs) were determined by observing the lowest concentration of the agent that inhibited visible growth of the bacterium.

[2] = test system: S. pneumoniae isolate CipR15 (serotype 16F); assay: MIC by broth microdilution, isolate CipR15; assay type: cell-based, Streptococcus pneumoniae; conditions: AGCH medium, 18–24 h
Procedure: as §1

[3] = test system: S. pneumoniae isolate CipR45 (serotype 8); assay: MIC by broth microdilution, isolate CipR45; assay type: cell-based, Streptococcus pneumoniae; conditions: isolate CipR45, serotype 8, low-level FQ-resistant, AGCH medium, 18–24 h
Procedure: as §1

[4] = test system: S. pneumoniae isolate CipR57 (serotype 8); assay: MIC by broth microdilution, isolate CipR57; assay type: cell-based, Streptococcus pneumoniae; conditions: isolate CipR57, serotype 8, high-level FQ-resistant, AGCH medium, 18–24 h
Procedure: as §1

[5] = test system: S. pneumoniae isolate CipR72 (serotype 15A); assay: MIC by broth microdilution, isolate CipR72; assay type: cell-based, Streptococcus pneumoniae; conditions: AGCH medium, 18–24 h
Procedure: as §1

[6] = test system: S. pneumoniae isolate CipR57; assay: Mouse sepsis model, survival after infection with CipR57; assay type: in vivo, Streptococcus pneumoniae; conditions: for survival at 36 h post-infection / survival within the first 48 h post-infection: mice infected i.p. with CipR57; for survival within the first 48 h post-infection: any concentration investigated (12.5 to 50 mg/kg s.c. every 12 h)
Procedure: (§2) BALB/c female mice (8–12 weeks old) weighing 20 g were purchased from Harlan Laboratories (Barcelona, Spain). […] Different concentrations of antibiotic (10, 20, and 40 mg/kg for SCN; 12.5, 25, and 50 mg/kg for LVX) were administered two times a day over 48 h by the subcutaneous route. The doses, interval, and schedule chosen were based in previous studies investigating the protective activity of FQs against pneumococcal sepsis in mice. Seconeolitsine stock solution was dissolved in dimethyl sulfoxide (DMSO) and the doses tested for protection in animals were prepared in PBS containing 1% DMSO. Animals in the lethal control groups were infected with S. pneumoniae and received the antibiotic solvent (PBS−1% DMSO) instead of SCN or LVX. The toxicity control for each antibiotic (no infection group) only received SCN or LVX. Animal experiments were performed in groups of at least 5 mice and were repeated twice.

[7] = test system: S. pneumoniae isolate CipR57; assay: Bacterial counts in blood of mice infected with CipR57; assay type: in vivo, Streptococcus pneumoniae; conditions: for effect on bacterial load in blood compared to the untreated group: 24 and 48 h post-infection, LVX 25 and 50 mg/kg, SCN different doses; for bacterial levels in blood at 24 h: 24 h post-infection; for bacteria in blood at 48 h: 48 h post-infection
Procedure: Bacteremic profiles (colony counts in blood) were determined from mice treated with SCN and LVX, at 24 h and 48 h post-infection, when the majority of mice were alive. To collect blood samples, volumes of 6 µl were obtained from the tail vein, as previously described, resuspended in PBS and plated onto blood agar plates at 37 °C in 5% CO2 for colony counts determination.

[8] = Serum pharmacokinetics in non-infected mice after single subcutaneous dose; assay type: in vivo, BALB/c mice
Procedure: Groups of two mice for each antibiotic and time-point were treated with a single subcutaneous dose of 40 mg/kg of SCN or 50 mg/kg of LVX. Blood samples were collected at 15 and 30 min and 1, 2, 4, 6, 8, 10, 12, 14, 18, and 24 h, centrifuged for 10 minutes at 2000 rpm, and the sera from the different mice were stored at −80 °C until drug assay determination.
Seconeolitsine concentrations were measured by high-pressure liquid chromatography analysis (HPLC). Chromatographic separation was performed using SunFire C18 column (150 × 4.6 mm; Waters Corporation, MA, USA) with trifluoroacetic acid and acetonitrile in the ratio 70:30 (vol./vol.) as the mobile phase. The solvent flow rate was 1.0 mL/min with a runtime of 20 minutes. The mobile phase was filtered through 0.45 µm prior to use. Standards ranging from 0−1.000 µg/mL were prepared in HPLC grade methanol. Sample dilutions, prepared in mouse serum, were injected into the column at a constant volume of 20 µl and were tested in duplicate. The detection wavelength was 270 by UV absorbance using a Waters UV–Visible 2489 module (Waters Corporation). The column was maintained at room temperature.
Plates containing a lawn of microorganism were incubated for 18–24 h at 37 °C. Standards and dilutions were prepared in mouse serum in a range from 0.03–8 µg/ mL.
Pharmacokinetic (PK) parameters measured included peak level (Cmax), time peak level (Tmax), area under the concentration time-curve from 0 to last (Clast) measured concentration (AUClast), and elimination half-life (t1/2). These parameters were estimated for both the total concentrations and the free fraction concentrations and were determined by using protein binding values, by a non-compartmental approach with the Phoenix WinNonlin program (version 6.2, Certara, NJ, USA). […] T>MIC for total and unbound concentrations (fT>MIC) were determined by a non-compartmental approach for PD data (Phoenix WinNonlin, model 220).

plasma proteins = assay: Protein binding by ultrafiltration; assay type: in vitro ADME; conditions: murine plasma
Procedure: Binding to serum proteins was determined by the ultrafiltration method (36) using the Centrifree micropartition system (Amicon Bioseparations, Millipore, Tullagreen, Ireland) with concentrations in murine plasma of 1 and 50 μg/mL for SCN and 5 and 50 μg/mL for LVX. Pre-filtered samples and ultrafiltrates recovered were measured by HPLC or bioassay, as described above. Percentage of SCN or LVX bound to proteins in mouse serum was calculated using the expression: [antibiotic in pre−filtered samples] − [antibiotic in ultrafiltrated samples]/[antibiotic in pre-filtered samples] × 100 as previously described.

[9] = Toxicity control, non-infected mice; assay type: in vivo, BALB/c mice; conditions: 40 mg/kg, largest concentration used; 7 days of follow-up
Procedure: as §2

Hydrosolubility = assay type: physicochemical; conditions: data not shown
S. pneumoniae Topo I = test system: S. pneumoniae Topo I; set-up: method as in PMID 21169356; conditions: cited from earlier work
S. pneumoniae = test system: S. pneumoniae; set-up: method as in PMID 21169356; conditions: cited from earlier work
human cell = test system: human cell; set-up: method as in PMID 21169356; conditions: cited from earlier work
[10] = test system: S. pneumoniae isolate CipR45; assay: Mouse sepsis model, survival after infection with CipR45; assay type: in vivo, Streptococcus pneumoniae; conditions: mice infected i.p. with CipR45
Procedure: as §2

[11] = mouse serum, single s.c. dose 40 mg/kg (seconeolitsine) or 50 mg/kg (levofloxacin)
[12] = Streptococcus pneumoniae, read-out: MIC
[13] = BALB/c, mouse, in vivo, sc, 50 mg/kg

Compound `CNCCc1cc2c(c3c1ccc1cc4c(cc13)OCO4)OCO2` [Seconeolitsine, seconeolitsine] has an MIC [1] of 5.2 µg/mL (≈ 16.1 µM), an MIC [2] of 2.6 µg/mL (≈ 8.04 µM) and an MIC [3] of 5.2 µg/mL (≈ 16.1 µM). For the same compound, the MIC [4] was 2.6 µg/mL (≈ 8.04 µM), the MIC [5] was 5.2 µg/mL (≈ 16.1 µM) and the “survival at 36 h post-infection” value ([6]; 20 mg/kg s.c. every 12 h over 48 h) was 60%. For the same compound, the “survival at 36 h post-infection” value ([6]; 40 mg/kg s.c. every 12 h over 48 h) was 70%, the “protection at 48 h” value ([6]; mice infected with a serotype 8-resistant strain, 40 mg/kg every 12 h during two days (abstract)) was 70% and the “effect on bacterial load in blood compared to the untreated group” value [7] was “significantly reduced bacterial load”. The “bacterial levels in blood at 24 h” value [7] was 10^4−10^5 CFU/mL, the “bacteria in blood at 48 h” value [7] was “a significant proportion of mice treated with SCN were free of bacteria” and the “SCN-derived metabolites in murine plasma” value ([8]; by HPLC) was “not detected”. For the same compound, the AUC0-12h [8, 11] was 5000 ± 0 ng·h/mL, the Cmax [8, 11] was 1600 ± 300 ng/mL and the Cmin [8, 11] was 300 ± 40 ng/mL. For the same compound, the Tlast [8, 11] was 9.0 ± 1.4 h, the Tmax [8, 11] was 60 ± 0 min and the t1/2 [8, 11] was 468 ± 144 min. The AUC0-24h ([8]; mouse serum, single s.c. dose 40 mg/kg (seconeolitsine) or 50 mg/kg (levofloxacin), twice the AUC0-last) was 10000 ± 100 ng·h/mL, the “binding to plasma proteins” value (plasma proteins; 1 µg/mL) was 40% and the “binding to plasma proteins” value (plasma proteins; 50 µg/mL) was 80%. The “harm to non-infected mice (survival, aspect, breathing, hair, eyes, appetite, movement, weight)” value [9] was “not harmful”, the hydrosolubility (Hydrosolubility) was “poor hydrosolubility” and the “concentration inhibiting S. pneumoniae Topo I activity in vitro” value (S. pneumoniae Topo I) was ~ 10 µM. For the same compound, the “concentration inhibiting cell growth” value (S. pneumoniae) was ~ 10 µM and the “effect on human cell viability” value (human cell) was “without affecting human cell viability”.

Work on `COc1c(N2C[C@@H]3CCCN[C@@H]3C2)c(F)cc2c(=O)c(C(=O)O)cn(C3CC3)c12` [MXF, moxifloxacin] yielded an MIC [1, 12] of 2 µg/mL (≈ 4.98 µM), an MIC [2, 12] of 4 µg/mL (≈ 9.96 µM) and an MIC [3, 12] of 0.25 µg/mL (≈ 0.623 µM). For the same compound, the MIC [4, 12] was 4 µg/mL (≈ 9.96 µM) and the MIC [5, 12] was 4 µg/mL (≈ 9.96 µM).

With `O=C(O)c1cn(C2CC2)c2cc(N3CCNCC3)c(F)cc2c1=O` [CIP, ciprofloxacin] the MIC [1, 12] was 16 µg/mL (≈ 48.3 µM), the MIC [2, 12] was 32 µg/mL (≈ 96.6 µM) and the MIC [3, 12] was 4 µg/mL (≈ 12.1 µM). For the same compound, the MIC [4, 12] was 64 µg/mL (≈ 193 µM) and the MIC [5, 12] was 64 µg/mL (≈ 193 µM).

Work on `C[C@H]1COc2c(N3CCN(C)CC3)c(F)cc3c(=O)c(C(=O)O)cn1c23` [Levofloxacin, levofloxacin] yielded an MIC [1, 12] of 8 µg/mL (≈ 22.1 µM), an MIC [2, 12] of 16 µg/mL (≈ 44.3 µM) and an MIC [3, 12] of 2 µg/mL (≈ 5.53 µM). For the same compound, the MIC [4, 12] was 16 µg/mL (≈ 44.3 µM), the MIC [5, 12] was 32 µg/mL (≈ 88.6 µM) and the “survival at 36 h post-infection” value ([10]; 12.5 mg/kg s.c. every 12 h over 48 h) was 40%. For the same compound, the “survival at 36 h post-infection” value ([10]; 25 mg/kg s.c. every 12 h over 48 h) was 80%, the “survival at 36 h post-infection” value ([10]; 50 mg/kg s.c. every 12 h over 48 h) was 100% and the “survival at 78 h post-treatment” value ([10]; 12.5 to 50 mg/kg s.c. every 12 h over 48 h) was “all mice succumbed to the infection”. The “survival within the first 48 h post-infection” value [6] was “all died within the first 48 h”, the “survival within the first 48 h post-infection” value ([6]; listed as LVX) was “all the animals died within the first 48 h post-infection” and the “effect on bacterial load in blood compared to the untreated group” value [7] was “did not reduce bacterial levels in blood”. For the same compound, the “bacterial levels in blood at 24 h” value [7] was “around 10^8 CFU/mL”, the “bacteria in blood at 48 h” value [7] was “High levels of bacterial counts” and the Cmax [8, 13] was 14700 ± 700 ng/mL. The Tmax [8, 13] was 15 min, the half-life [8, 13] was 42 min and the AUC(0-t) ([8]; BALB/c, mouse, in vivo, sc, 50 mg/kg, AUC0-12h) was 17300 ± 1500 ng·h/mL. For the same compound, the AUC(0-t) ([8]; BALB/c, mouse, in vivo, sc, 50 mg/kg, AUC0-24h) was 34600 ± 2900 ng·h/mL, the “binding to plasma proteins” value (plasma proteins; 5 µg/mL) was 12% and the “binding to plasma proteins” value (plasma proteins; 50 µg/mL) was 33%.

For `CN(C)CCc1cc2c(c3c1ccc1cc4c(cc13)OCO4)OCO2` [N-methyl-seconeolitsine], the “concentration inhibiting S. pneumoniae Topo I activity in vitro” value (S. pneumoniae Topo I) is given as ~ 10 µM, the “concentration inhibiting cell growth” value (S. pneumoniae) is given as ~ 10 µM and the “effect on human cell viability” value (human cell) is given as “without affecting human cell viability”.
